Measurements: publication PMC9870012 (Journal of Enzyme Inhibition and Medicinal Chemistry, 2023)

Experiments:
[1] = molecular target: T1, human meprin α (Homo sapiens, UniProt Q16819); type: biochemical; settings: for Ki: Ki(app) Meprin α, geometric mean of three independent experiments with standard deviation factor; for SF: selectivity factor (Ki(app) meprin β/Ki(app) meprin α): meprin α over meprin β
T1 sequence (Q16819 66-746): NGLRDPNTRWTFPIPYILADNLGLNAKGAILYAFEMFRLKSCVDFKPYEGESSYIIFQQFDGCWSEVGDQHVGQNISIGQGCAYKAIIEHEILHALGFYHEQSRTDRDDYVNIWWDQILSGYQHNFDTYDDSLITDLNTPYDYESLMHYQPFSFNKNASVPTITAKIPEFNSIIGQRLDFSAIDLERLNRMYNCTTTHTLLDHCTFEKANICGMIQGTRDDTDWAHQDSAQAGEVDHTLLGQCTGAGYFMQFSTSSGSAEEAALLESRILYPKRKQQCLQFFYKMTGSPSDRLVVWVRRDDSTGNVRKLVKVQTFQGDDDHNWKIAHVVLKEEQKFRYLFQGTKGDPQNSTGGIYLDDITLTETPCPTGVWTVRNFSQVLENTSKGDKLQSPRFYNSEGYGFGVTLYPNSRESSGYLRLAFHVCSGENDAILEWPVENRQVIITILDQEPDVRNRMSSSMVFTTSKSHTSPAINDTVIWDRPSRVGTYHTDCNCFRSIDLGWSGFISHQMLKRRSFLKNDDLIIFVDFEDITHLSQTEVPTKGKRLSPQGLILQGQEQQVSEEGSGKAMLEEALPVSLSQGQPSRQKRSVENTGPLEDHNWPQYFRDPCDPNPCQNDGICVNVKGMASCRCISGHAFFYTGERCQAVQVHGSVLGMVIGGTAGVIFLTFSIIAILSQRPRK

[2] = molecular target: T2, human meprin β (Homo sapiens, UniProt Q16820); type: biochemical; settings: for Ki: Ki(app) Meprin β, geometric mean of three independent experiments with standard deviation factor
T2 sequence (Q16820 62-701): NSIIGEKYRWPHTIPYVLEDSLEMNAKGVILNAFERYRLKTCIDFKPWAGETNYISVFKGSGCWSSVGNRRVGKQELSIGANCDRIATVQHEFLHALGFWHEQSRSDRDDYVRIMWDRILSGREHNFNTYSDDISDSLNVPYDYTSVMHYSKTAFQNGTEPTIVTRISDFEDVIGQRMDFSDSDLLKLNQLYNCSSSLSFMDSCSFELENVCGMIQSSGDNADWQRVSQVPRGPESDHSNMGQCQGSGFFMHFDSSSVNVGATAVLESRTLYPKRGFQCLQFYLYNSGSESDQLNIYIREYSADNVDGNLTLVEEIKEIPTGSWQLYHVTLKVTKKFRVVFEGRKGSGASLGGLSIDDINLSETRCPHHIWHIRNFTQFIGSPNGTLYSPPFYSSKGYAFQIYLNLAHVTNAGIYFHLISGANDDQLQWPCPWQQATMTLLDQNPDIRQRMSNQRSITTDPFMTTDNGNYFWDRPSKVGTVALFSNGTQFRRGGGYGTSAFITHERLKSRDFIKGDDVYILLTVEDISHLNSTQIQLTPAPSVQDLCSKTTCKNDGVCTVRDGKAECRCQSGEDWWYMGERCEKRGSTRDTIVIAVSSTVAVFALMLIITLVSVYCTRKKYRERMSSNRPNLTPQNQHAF

[3] = molecular target: T3, MMP2 (Homo sapiens, UniProt P08253); assay: Off-target metalloprotease inhibition, MMP2; type: biochemical; settings: for remaining activity at 10 µM: read-out: Residual activity MMP2
T3 sequence (P08253 110-660): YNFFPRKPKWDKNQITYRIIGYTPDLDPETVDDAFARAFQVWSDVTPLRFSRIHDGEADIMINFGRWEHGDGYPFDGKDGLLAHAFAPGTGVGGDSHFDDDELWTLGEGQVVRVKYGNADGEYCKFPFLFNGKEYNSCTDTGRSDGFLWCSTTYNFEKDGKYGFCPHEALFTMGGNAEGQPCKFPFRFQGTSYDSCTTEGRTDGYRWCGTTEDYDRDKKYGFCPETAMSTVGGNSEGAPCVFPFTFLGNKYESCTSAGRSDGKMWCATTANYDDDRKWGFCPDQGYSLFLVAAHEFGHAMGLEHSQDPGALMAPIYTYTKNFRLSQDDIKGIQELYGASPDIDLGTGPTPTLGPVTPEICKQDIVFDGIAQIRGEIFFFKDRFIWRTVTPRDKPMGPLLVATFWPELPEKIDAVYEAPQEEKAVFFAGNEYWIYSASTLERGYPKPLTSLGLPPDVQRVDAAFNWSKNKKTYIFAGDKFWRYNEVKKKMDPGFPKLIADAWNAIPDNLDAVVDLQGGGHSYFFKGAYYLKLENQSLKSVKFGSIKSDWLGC

[4] = molecular target: MMP9 (Homo sapiens, UniProt P14780); assay: Off-target metalloprotease inhibition, MMP9; type: biochemical; settings: read-out: Residual activity MMP9
MMP9, sequence (P14780 107-707 limits assumed): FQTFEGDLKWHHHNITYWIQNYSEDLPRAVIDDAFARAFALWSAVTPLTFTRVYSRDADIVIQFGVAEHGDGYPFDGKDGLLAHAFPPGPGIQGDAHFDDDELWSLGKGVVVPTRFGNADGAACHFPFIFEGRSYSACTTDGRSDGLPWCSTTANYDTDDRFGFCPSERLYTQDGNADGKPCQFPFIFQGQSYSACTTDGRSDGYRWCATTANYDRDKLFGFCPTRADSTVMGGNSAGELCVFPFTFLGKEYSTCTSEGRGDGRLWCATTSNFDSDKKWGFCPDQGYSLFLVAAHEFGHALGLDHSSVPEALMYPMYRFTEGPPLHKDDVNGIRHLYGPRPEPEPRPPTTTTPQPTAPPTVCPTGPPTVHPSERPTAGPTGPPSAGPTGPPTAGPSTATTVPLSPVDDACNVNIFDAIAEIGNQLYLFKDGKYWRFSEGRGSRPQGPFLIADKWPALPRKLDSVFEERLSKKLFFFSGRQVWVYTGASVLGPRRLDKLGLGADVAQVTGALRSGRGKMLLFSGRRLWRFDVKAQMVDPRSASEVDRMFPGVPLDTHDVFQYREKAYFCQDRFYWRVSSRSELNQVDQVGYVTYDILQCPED

[5] = molecular target: MMP13 (Homo sapiens, UniProt P45452); assay: Off-target metalloprotease inhibition, MMP13; type: biochemical; settings: read-out: Residual activity MMP13
[6] = molecular target: T4, ADAM10 (Homo sapiens, UniProt O14672); assay: Off-target metalloprotease inhibition, ADAM10; type: biochemical; settings: for remaining activity at 10 µM: read-out: Residual activity ADAM10
T4 sequence (O14672 214-748): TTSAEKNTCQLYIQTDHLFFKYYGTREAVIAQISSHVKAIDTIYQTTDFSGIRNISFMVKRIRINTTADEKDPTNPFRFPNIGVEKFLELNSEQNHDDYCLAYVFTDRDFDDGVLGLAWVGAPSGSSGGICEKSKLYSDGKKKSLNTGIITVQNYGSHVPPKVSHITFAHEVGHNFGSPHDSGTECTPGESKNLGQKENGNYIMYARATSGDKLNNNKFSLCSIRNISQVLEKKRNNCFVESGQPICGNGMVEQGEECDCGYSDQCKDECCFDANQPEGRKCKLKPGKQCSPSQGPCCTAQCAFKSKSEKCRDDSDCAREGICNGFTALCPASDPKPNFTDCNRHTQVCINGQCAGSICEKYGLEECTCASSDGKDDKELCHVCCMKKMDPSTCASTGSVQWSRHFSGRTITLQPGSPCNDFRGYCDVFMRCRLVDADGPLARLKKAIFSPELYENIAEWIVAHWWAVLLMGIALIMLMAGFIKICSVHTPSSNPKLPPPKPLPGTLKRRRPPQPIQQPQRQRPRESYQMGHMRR

[7] = molecular target: ADAM17 (Homo sapiens, UniProt P78536); assay: Off-target metalloprotease inhibition, ADAM17; type: biochemical; settings: for remaining activity at 10 µM: read-out: Residual activity ADAM17
ADAM17, sequence (P78536 215-824): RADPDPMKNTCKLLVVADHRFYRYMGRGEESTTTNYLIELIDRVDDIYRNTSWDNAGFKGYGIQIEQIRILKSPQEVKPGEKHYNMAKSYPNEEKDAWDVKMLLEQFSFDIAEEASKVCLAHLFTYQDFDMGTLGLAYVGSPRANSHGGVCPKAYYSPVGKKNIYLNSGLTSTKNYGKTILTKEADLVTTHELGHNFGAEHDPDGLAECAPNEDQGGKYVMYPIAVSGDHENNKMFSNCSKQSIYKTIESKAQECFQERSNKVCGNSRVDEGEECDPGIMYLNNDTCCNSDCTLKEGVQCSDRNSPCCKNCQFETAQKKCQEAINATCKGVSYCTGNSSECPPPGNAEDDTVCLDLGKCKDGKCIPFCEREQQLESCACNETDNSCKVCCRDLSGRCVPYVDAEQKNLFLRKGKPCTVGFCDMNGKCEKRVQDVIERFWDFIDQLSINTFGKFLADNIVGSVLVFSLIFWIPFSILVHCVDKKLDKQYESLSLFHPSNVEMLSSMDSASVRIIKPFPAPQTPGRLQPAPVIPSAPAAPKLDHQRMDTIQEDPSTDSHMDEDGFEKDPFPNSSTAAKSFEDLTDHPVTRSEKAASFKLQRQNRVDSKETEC

[8] = Cell viability assay; type: cell-based; settings: human, Hep-G2 cells
[9] = Cell viability assay; type: cell-based; settings: human, SH-SY5Y cells

| SMILES | Ki [1] [nM] | fold improved activity against meprin α ([1]; compared to 21e) [fold] | SF: selectivity factor (Ki(app) meprin β/Ki(app) meprin α) [1] | Ki [2] [nM] | fold increase in potency against meprin β ([2]; compared to 21e) [fold] | remaining activity at 10 µM [3] [%] | remaining activity at 10 µM [4] [%] | remaining activity at 10 µM [5] [%] | remaining activity at 10 µM [6] [%] | remaining activity at 10 µM [7] [%] | viability at 24 h, 30 µM [8] [%] | viability at 24 h, 30 µM [9] [%] | IC50 [3] [nM] | IC50 [6] [nM] | IC50 [7] [nM] | activity against meprin β dropped by factor ([2]; compared to 21i) |
| --- | --- | --- | --- | --- | --- | --- | --- | --- | --- | --- | --- | --- | --- | --- | --- | --- |
| O=C(Cc1c(-c2ccccc2)nn(Cc2cccc(C(=O)O)c2)c1-c1ccccc1)NO [21g, 3-[[4-[2-(Hydroxyamino)-2-oxo-ethyl]-3,5-diphenyl-pyrazol-1-yl]methyl]benzoic acid] | 0.3 | 3 | 35 | 10.6 | 30 | 89 | 83 | 83 | 92 | 84 | 99 | 85 | – | – | – | – |
| O=C(Cc1c(-c2ccc3c(c2)OCO3)n[nH]c1-c1ccccc1)NO [14f, 2-[3-(1,3-Benzodioxol-5-yl)-5-phenyl-1H-pyrazol-4-yl]ethanehydroxamic acid] | 1.1 | – | 99 | – | – | 41 | 72 | 71 | 59 | 51 | 96 | 90 | 5300 | 13900 | 7400 | – |
| O=C(Cc1c(-c2ccc3c(c2)OCO3)n[nH]c1-c1ccc2c(c1)OCO2)NO [16a, 2-[3,5-Bis(1,3-benzodioxol-5-yl)-1H-pyrazol-4-yl]ethanehydroxamic acid] | 0.6 | – | – | – | – | – | 63 | – | 62 | 57 | – | – | – | 12000 | 9600 | – |
| O=C(CCc1c(-c2ccccc2)nn(Cc2ccc(Cl)c(O)c2F)c1-c1ccccc1)NO [compound 22, 3-[1-[(4-Chloro-2-fluoro-3-hydroxy-phenyl)methyl]-3,5-diphenyl-pyrazol-4-yl]propane-hydroxamic acid] | – | – | 7892 | – | – | 102 | 100 | 98 | 117 | 90 | 100 | 98 | – | – | – | ~120 |
| O=C(Cc1c(-c2cc(F)c(O)c(Cl)c2)n[nH]c1-c1ccccc1)NO [14m, 2-[3-(3-Chloro-5-fluoro-4-hydroxyphenyl)-5-phenyl-1H-pyrazol-4-yl]ethanehydroxamic acid] | 0.1 | – | 3 | 0.4 | – | 66 | 86 | 88 | 104 | 68 | 103 | 86 | – | – | – | – |
| O=C(Cc1c(-c2ccccc2)nn(Cc2ccc3c(c2)OCO3)c1-c1ccccc1)NO [21f, 2-[1-(1,3-Benzodioxol-5-ylmethyl)-3,5-diphenyl-pyrazol-4-yl]ethanehydroxamic acid] | 0.6 | – | 508 | – | – | 77 | 74 | 78 | 69 | 21 | 103 | 88 | – | – | 2300 | – |
| COc1ccc(-c2n[nH]c(-c3ccccc3)c2CC(=O)NO)cc1OC [14g, 2-[3-(3,4-Dimethoxyphenyl)-5-phenyl-1H-pyrazol-4-yl]ethanehydroxamic acid] | 0.7 | – | 117 | – | – | 83 | 90 | 101 | 87 | 65 | 99 | 85 | – | – | – | – |
| O=C(Cc1c(-c2ccc(C(=O)O)cc2)n[nH]c1-c1ccc(Cl)c(O)c1F)NO [16h, 4-[5-(4-Chloro-2-fluoro-3-hydroxy-phenyl)-4-[2-(hydroxyamino)-2-oxo-ethyl]-1H-pyrazol-3-yl]benzoic acid] | 9.6 | – | 1 | 11.2 | – | – | – | – | – | – | – | – | – | – | – | – |
| COc1cccc(-c2n[nH]c(-c3ccccc3)c2CC(=O)NO)c1 [14d, 2-[3-(3-Methoxyphenyl)-5-phenyl-1H-pyrazol-4-yl]ethanehydroxamic acid] | 1.1 | – | 105 | – | – | 78 | 80 | 85 | 68 | 52 | 104 | 84 | – | – | 11600 | – |
| O=C(Cc1c([C@@H]2CCCC[C@@H]2C(=O)O)n[nH]c1-c1cccc(C(=O)O)c1)NO (relative stereo) [16k, 3-[4-[2-(Hydroxyamino)-2-oxo-ethyl]-3-[cis-2-carboxycyclohexyl]-1H-pyrazol-5-yl]benzoic acid] | 0.4 | – | 13 | 5.2 | – | – | – | – | – | – | – | – | – | – | – | – |
| O=C(Cc1c([C@H]2CCCC[C@H]2C(=O)O)n[nH]c1-c1ccccc1)NO (relative stereo) [14q, Cis-2-[4-[2-(hydroxyamino)-2-oxo-ethyl]-5-phenyl-1H-pyrazol-3-yl]cyclohexanecarboxylic acid] | 0.3 | – | 127 | 32.6 | – | – | – | – | – | – | – | – | – | – | – | – |
| O=C(Cc1c(-c2ccc(C(=O)O)cc2)n[nH]c1-c1cccc(C(=O)O)c1)NO [16g, 3-[3-(4-Carboxyphenyl)-4-[2-(hydroxyamino)-2-oxo-ethyl]-1H-pyrazol-5-yl]benzoic acid] | 20.3 | – | 2 | 32.5 | – | – | – | – | – | – | – | – | – | – | – | – |
